# Laboratory results from PubChem BioAssay AID1996.
# Details: buffer; pH 7.4; 200.0 µM
row,Compound,solubility kinetic [µg/mL]
1,NS(=O)(=O)c1cccc(NC(=O)c2ccc(NS(=O)(=O)c3cccc([N+](=O)[O-])c3)cc2)c1,> 71.5
2,CC(=O)Nc1cc2c3c(c1)CCC(=O)N3CCC2,> 36.6
3,Cc1ccc(C(=O)CN2CCN(c3ccccn3)CC2)c(C)c1,25.5
4,COc1ccc(CN(C)CC(=O)Nc2c(C)cccc2C)c(OC)c1,> 51.4
5,CC1CC(C)CN(C(=O)c2cccc3c2-c2ccccc2C3=O)C1 (centres undefined),5
6,N#Cc1cnc(SCC(=O)N2CCCC2)nc1N,> 39.5
7,Cc1ccc(N2C(=O)SC(Cc3ccccc3)C2=O)cc1 (centres undefined),0.8
8,CCN(CC)c1ccc(NC(=O)c2ccc3c(c2)OCO3)c(C)c1,5.4
9,CN(C)C(CNC(=O)c1coc2ccccc2c1=O)c1ccccc1 (centres undefined),> 50.5
10,CCOC(=O)c1c(C)n(CC)c2c1cc(O)c1ccccc12,< 0.6
11,O=C(N/N=C/C1CC2CCC1C2)C1CC1 (centres undefined),> 30.9
12,CCC(C(=O)OCCOCCN(CC)CC)c1ccccc1 (centres undefined),41.1
13,C=CCNc1nc(NCc2ccccc2)c(C#N)c2c1CN(C)CC2,3
14,CCN(CC)C(=O)CSc1ncnc2sc(C)c(C)c12,43.4
15,O=c1cc(-c2ccc(Cl)cc2)oc(=O)[nH]1,> 33.5
16,CN(c1ccccc1)S(=O)(=O)c1cccc(C(=O)NCC(=O)Nc2ccc(F)c(F)c2F)c1,5.3
17,Cc1ccc[n+](CC(=O)Nc2nc3ccccc3s2)c1.[Cl-],> 48
18,COc1ccc(NC(=O)Oc2ccccc2)cc1Cl,18.4
19,COc1ccc2nc(SCC(=O)NCCc3ccccc3)[nH]c2c1,> 51.2
20,Cc1nn(CCCC(=O)Nc2cccnc2Cl)c(C)c1[N+](=O)[O-],> 50.7
21,CCNc1nc(NCC)nc(N(C#N)C(C)C)n1,> 37.4
22,CCOC(=O)c1[nH]c2ccccc2c1NC(=O)NC(C)C,1.7
23,COc1ccc(NC(=O)c2ccc3c(c2)OCO3)cc1,3.8
24,O=C(/C=C/c1ccc2c(c1)OCO2)NCc1ccncc1,42.1

row,Compound,solubility kinetic [µg/mL]
1,COc1cc(CN2CCCCCC2)cc(Br)c1O,39.6
2,CCC(C)NC(=O)CN1c2cccc3cccc(c23)S1(=O)=O (centres undefined),35.5
3,Cc1ccc2cc(COC(=O)c3cccc([N+](=O)[O-])c3)c(=O)[nH]c2c1,2.7
4,CNC(=O)N(C)c1ccc(C(O)(C(=O)OC)C(F)(F)F)cc1 (centres undefined),46.7
5,CCCN1CCN(C(=O)c2c(Cl)cnn2C)CC1,> 40.6
6,Cc1cccc(NC(=O)Nc2cnccn2)c1C,1.9
7,CSc1ncccc1C(=O)NCC(c1ccco1)N1CCCCC1 (centres undefined),> 51.8
8,CC(Sc1ccccc1)C(=O)N(CCC#N)Cc1cccnc1 (centres undefined),> 48.8
9,CCN(CC)C(=O)c1cc(Cl)ccc1NC(=O)c1ccco1,> 48.1
10,CCOC(=O)c1cnc2cc(F)c(F)cc2c1N1CCN(C)CC1,30.7
11,C=CCOc1ccccc1CNCc1ccc(F)cc1.Cl,> 46.2
12,COc1cccc(N2CCN(c3nc(C)c(C)c(=O)[nH]3)CC2)c1,25.9
13,C/C(=N/NC(=O)CNC(=O)c1cccnc1)c1ccccc1,> 44.4
14,Cc1noc(C(=O)Nc2cccnc2Cl)c1Cl,> 40.8
15,COc1ccc(CCN(C)C2CC(=O)N(c3ccccc3)C2=O)cc1OC (centres undefined),> 55.3
16,CC(=O)Nc1ccc(S(=O)(=O)NC2CC3CCC2C3)cc1 (centres undefined),> 46.3
17,CCN1CCN(CCC(=O)Nc2ccc(C)cc2)CC1.Cl,> 46.8
18,CCn1c(Cc2ccc(OC)cc2)nc2ccccc21,> 40
19,CC(=O)Nc1ccc(SCc2csc(C)n2)cc1,35.4
20,O=C(O)CC1c2ccccc2CCN1S(=O)(=O)c1cccs1 (centres undefined),> 50.6
21,CC(C)(C)C(=O)Nc1nc2cc3c(cc2s1)OCO3,0.6
22,CCC1CO/C(=C(\C(=C(Cl)Cl)N2CCOCC2)[N+](=O)[O-])N1 (centres undefined),> 50.7
23,CCC1CCC(N2CCN(c3ccc([N+](=O)[O-])cc3)CC2)CC1 (centres undefined),8.9
24,Cc1ccc2c(CN3CCCCC3)cc(=O)oc2c1C,22.6

row,Compound,solubility kinetic [µg/mL]
1,CS(=O)(=O)c1ccc(Cl)c(NC(=O)CCNC(=O)c2ccco2)c1,49.9
2,Cc1cc(F)ccc1NS(=O)(=O)c1cccc2nsnc12,44.2
3,CCC(C)(CC(=O)Nc1nccs1)c1ccccc1 (centres undefined),> 41.2
4,CC1SC(=S)N(c2ccc(N(C)C)cc2)C1=O (centres undefined),5.7
5,COc1ccc(S(=O)(=O)NCc2ccccn2)cc1OC,43
6,Cc1ccccc1/C=C/c1cccc[n+]1C.[I-],> 50.6
7,Cc1ccc(C)c(S(=O)(=O)c2c(C)cc(C)[nH]c2=O)c1,28.9
8,Cc1ccccc1Nc1ncnc(N)n1,> 30.2
9,Cl.Clc1ccc2[nH]c3c(c2c1)CCNC3,32.4
10,CCN1CCN(CCc2nc3cc([N+](=O)[O-])ccc3n2C)CC1,> 47.6
11,Cc1ccc(CC2CC(=O)N(c3cc(C)ccc3C)C2=O)cc1 (centres undefined),33.9
12,Cc1csc(NC(=O)C2CSC3(C)CCC(=O)N23)n1 (centres undefined),> 44.6
13,COc1nc(OCC#N)nc(N2CCCCC2)n1,31.6
14,CCOC(=O)c1ccc(S(=O)(=O)N2CCN(C(C)=O)CC2)cc1,> 51.1
15,Nc1nc2c(Cl)ccc(Cl)c2s1,3.2
16,COc1ccc(C(=O)n2cnc3ccccc32)cc1[N+](=O)[O-],29.4
17,CC(C)C1Cc2nc(Cl)c(C#N)cc2CO1 (centres undefined),24.8
18,NC(=S)Nc1cccc(-c2n[nH]c(=S)o2)c1,> 37.8
19,CCOC(=O)c1cc2c(=O)c3ccccc3oc2nc1C,2.1
20,O=C(CCNC(=O)c1ccc(Cl)cc1)Nc1nc2ccccc2[nH]1,2.3
21,CCOC(=O)/C(C(=Nc1ccccc1)Nc1ccccc1)=C(\C)O,29.5
22,CCn1c(CCc2ccccc2)nnc1SCC(N)=O,> 43.6
23,O=C(Nc1cccc2ncccc12)c1ccc([N+](=O)[O-])o1,> 42.5
24,NC(CCCCCP(=O)(c1ccccc1)c1ccccc1)C(=O)O (centres undefined),40.4

row,Compound,solubility kinetic [µg/mL]
1,CC(C)CN(CC(C)C)C(=O)COc1ccccc1C(N)=O,> 46
2,CCOc1ccc(NC(=S)NCc2nc3ccccc3[nH]2)cc1,46.6
3,COCc1c(C(=O)OCC(=O)NCc2ccco2)oc2ccccc12,48
4,CCOC(=O)c1cc2c(ccn2C)n1Cc1ccccc1Cl,< 0.3
5,CC1CCCCC12NC(=O)N(CC(=O)OCc1ccccc1F)C2=O (centres undefined),17.2
6,O=C(c1cccc(NS(=O)(=O)c2ccccc2)c1)N1CCCC1,43.9
7,CC(NC(=O)COC(=O)c1cc(=O)c2ccccc2o1)c1ccccc1 (centres undefined),> 52.7
8,O=c1[nH]c2ccccc2n2c(=S)[nH]nc12,> 32.7
9,COc1ccccc1N1CC=C(c2cccc([N+](=O)[O-])c2)NC1=O,39.8
10,CC(C)c1cccc(C(C)C)c1NC(=O)c1ccccc1,1.7
11,Nc1nc(SCC(=O)Nc2cccc(F)c2)n[nH]1,> 40.1
12,CN(CCC#N)C(=O)COc1ccc(Br)cc1Cl,> 49.7
13,Cc1cccc(Nc2nc(N)nc(-c3oc4ccccc4c3C)n2)c1,< 0.1
14,c1ccc2nc3c(nc2c1)OCC1CCCCN31 (centres undefined),23.5
15,CC(C#N)Sc1ncnc2sc(-c3ccccc3)cc12 (centres undefined),0.8
16,CCOC(=O)C1CCN(C(=O)CSc2nc(N)cc(=O)[nH]2)CC1,> 51.1
17,CC(C)[C@H](NC(=O)c1ccc(C(C)(C)C)cc1)C(=O)N1CCN(Cc2ccc3c(c2)OCO3)CC1,7.9
18,O=C(CN1CCOCC1)Nc1ccccc1C(=O)Nc1ccccc1,39.1
19,FC(F)(F)c1ccc(Cl)c(NC2=NCCCCC2)c1,> 43.6
20,N=C1SCC(=O)N1c1ncc(Cc2ccccc2Cl)s1,2.2
21,Cc1cc(C)cc(NC(=S)NC(=O)C2CC2)c1,30
22,Cl.Clc1cc(I)cc(Cl)c1NC1=NCCN1,> 58.9
23,COCCCNC(=O)c1c(N)n(Cc2ccco2)c2nc3ccccc3nc12,4.8
24,CC(=O)N1CCN(CC(=O)Nc2cc(S(=O)(=O)N3CCCCC3)ccc2C)CC1,> 63.4

row,Compound,solubility kinetic [µg/mL]
1,Cc1cccc(OCC(=O)Nc2ccc3nc(C)sc3c2)c1,1.8
2,O=C(Nc1ccccc1C(F)(F)F)N1CCCC1c1cccnc1 (centres undefined),> 50.3
3,O=C(/C=C/c1c(Cl)cccc1Cl)N1CCOCC1,> 42.9
4,Cc1ccc2nc(-c3ccncc3)cc(C(=O)N3CCOCC3)c2c1,> 50
5,O=C(/C=C/c1cccs1)NCc1cccs1,32.3
6,Cc1noc(C)c1C(=O)OC(C)C(=O)Nc1ccc2c(c1)OCO2 (centres undefined),11.8
7,CC(=O)c1sc(-c2ccccc2)cc1NS(=O)(=O)c1ccc(C)cc1,1.1
8,CCOc1cc(C(=S)N2CCCC2)ccc1OC,> 39.8
9,CC(C)C(NC(=O)c1ccc(Cl)c([N+](=O)[O-])c1)C(=O)NCc1ccccn1 (centres undefined),40.6
10,Cc1cccc(-c2nc(C#N)c(NCc3ccco3)o2)c1,1.9
11,CC(C)CCNC(=O)C1c2ccccc2Oc2ccccc21,< 0.6
12,CCOC(=O)COn1c(=O)c(-c2ccc(F)cc2)[n+]([O-])c2ccccc21,3.8
13,CC(Nc1nc(N2CCOCC2)nc2ccccc12)c1ccccc1 (centres undefined),6.8
14,Cc1ccccc1N=C1NC(=O)C(CO)(CO)S1,> 39.9
15,CCCOc1cccc(C(=O)NCCNC(=O)c2ccc(C)nc2)c1,> 51.2
16,Cc1cnc(NC(=O)Cc2ccc(Br)cc2)s1,< 0.3
17,CC(C)(C)NC(=O)NC(=O)COC(=O)Cc1c(F)cccc1Cl,15.6
18,O=C(COC(=O)c1ccc(Cl)nc1)NCCc1ccc(F)cc1,> 50.5
19,Cc1ccc(C(=O)O)cc1NC(=O)C1CCN(S(=O)(=O)c2ccc3c(c2)OCCO3)CC1,> 69.1
20,CC(=O)c1ccc(N2C(=O)CC(N3CCN(S(=O)(=O)c4cc(C)ccc4C)CC3)C2=O)cc1 (centres undefined),56.9
21,O=C(O)c1ccccc1C(=O)NCc1ccc2c(c1)OCO2,44.9
22,Cc1ccc(C(=O)NCCNC(=O)COc2ccc(C)c(C)c2)cn1,49.2
23,O=C(Nc1ccncc1)c1sc2ccccc2c1Cl,0.8
